Common to all, as to format: in vivo, rat
Test [1] concerns iris vessels of diabetic rats. As to the kind of experiment: Iris blood flow velocity in STZ diabetic rats. The note with it: x ± s. An excerpt: (§1) The modeling was the same as that of Experiment 2. After successful modeling, diabetic rats were randomized into the model group (20 rats), experiment group (30 rats, given the TCM composition prepared according to Experiment 1), control group (Doxium group, 20 rats) and normal group (12 rats). The experiment lasted 300 days. 1.2 Observation Methods and Outcome Measures: The iris blood flow velocity, diameter of iris vessels, density of iris microvessels, endothelial structure of iris microvessels, permeability of iris microvessels and iris unit area blood perfusion volume were observed by the iris vascular perfusion scan and iris fluorescein angiography.

The test system of test [2] is iris vessels of diabetic rats. The experiment in a line: Iris unit area blood perfusion volume (laser Doppler scanning) in STZ diabetic rats. Particulars: x ± s.
From the text: as §1

Test [3] deals with iris vessels of diabetic rats. As to the kind of experiment: Diameter of iris vessels in STZ diabetic rats. The note with it: 300 days, result in words.
From the text: as §1

The subject of a further test is retinal capillaries. The experiment in a line: Microscopic observation of retinal vascular digest preparation, STZ diabetic rats (Experiment 3). Particulars: 9 months, PAS staining, result in words. The procedure: (§2) 48 SPF-grade SD rats, male, 6 weeks old, (220±20) g in weight, were purchased from Huafukang Biotechnology Co., Ltd. After one-week's adaptive feeding, the rats were randomized into the modeling group (36 rats) and normal group (12 rats). The rats were fasted for 12 hours before modeling and given 1% STZ solution according to the body weight of 60 mg/kg via one intraperitoneal injection to induce experiment diabetic rat models. Rats in the normal group were injected with normal saline of the same volume. Blood glucose was monitored 72 hours later, blood was collected via caudal vein, and the modeling was deemed as successful when the blood glucose was ≥16.7 mmol/L for 3 consecutive days; after successful modeling, rats were randomized into the model group (12 rats), TCM composition experiment group (abbreviated as the experiment group, containing 12 rats) and Doxium group (abbreviated as the control group, containing 12 rats). Rats in the experiment group and control group were dosed on the next day after successful modeling. The administered dose of the experiment group was 10 ml/(kg·d) and that of the control group was 250 mg/(kg·d), with the Doxium powders dissolved in 2 mL distilled water. […] In the experiment period, all the rats were given food and drinking water at regular times each day; the changes in the body weight and blood glucose of rats were monitored monthly. […]

The test system of test [4] is retina. As to the kind of experiment: HE staining of retinal paraffin sections, STZ diabetic rats (Experiment 3). Particulars: 9 months, result in words. Here is the method:
as §2

In test [5] the test system is retina. As to the kind of experiment: Retinal electron microscopy, STZ diabetic rats (Experiment 3). The note with it: 9 months, result in words. Here is the method: as §2
The next test deals with VEGF. As to the kind of experiment: Immunohistochemistry of retinal paraffin sections: whole-layer retinal VEGF expression (Experiment 3). The note with it: STZ diabetic rats, 9 months, x ± s. Here is the method: as §2

In the case of `O=S(=O)(O)c1cc(O)ccc1O` [Doxium], the “Blood Flow Velocity Index, Post-treatment” value in test [1] (300 days) was found to be 3.25 ± 0.81 min. Besides, in test [1] (baseline), the “Blood Flow Velocity Index, Pre-treatment” value amounted to 1.07 ± 0.07 min. Further, the “Iris Unit Area Blood Perfusion Volume, Post-treatment” value in test [2] (300 days) is recorded as 133.71 ± 6.89. For the same compound, in test [2] (baseline), the “Iris Unit Area Blood Perfusion Volume, Pre-treatment” value was determined as 607.45 ± 194.19. In addition, the “Diameter of iris vessels compared to the model group” value in test [3] is “no statistically significant difference between the Doxium group and model group”. The “Microscopic observation of retinal vascular digest preparation” value in the test with retinal capillaries was “retinal microvascular changes were significantly prevented or delayed”. Besides, the “Light microscopic observation of HE-stained retinal paraffin sections” value in the test on retina [4] was “the retinal net structure was loose, internal and external granular layers were arranged in a disordered manner, capillaries were dilated, and interstitial edema can be noted”. For the same compound, the “Retinal ultrastructure observation (electron microscopy)” value in the test with retina [5] was “the vascular walls of retinal capillaries were still regular and smooth, basement membranes were thickened”. Further, the “Whole-layer Retinal VEGF Expression (Gray-scale values), Mean Optical Density Value” with VEGF is reported as 0.43 ± 0.09.

The values are drawn from patent US10420810B2, “Traditional Chinese medicine composition for the treatment of diabetic retinopathy” (priority 2015, dated 2019).
